These results are taken from ChEMBL document CHEMBL3576796, “A Broad Anti-influenza Hybrid Small Molecule That Potently Disrupts the Interaction of Polymerase Acidic Protein-Basic Protein 1 (PA-PB1) Subunits” (J Med Chem, 2015).

Each structure is given as a SMILES string. Values after ≈ are worked out from the molar mass of the structure shown. Active and inactive are the calls of the source. No cut-off for these calls is given here. A value given as a limit tells only on which side of the number the result lay.

The nature of series [1]: Antiviral activity against Influenza A virus A/Wisconsin/67/05 (H3N2) assessed as reduction in plaque formation after 48 hrs by plaque reduction assay. It is filed as functional, Influenza A virus (A/Wisconsin/67/2005(H3N2)). Background: Plaques are areas of infected cells; plaque reduction assays count them against a control.
The nature of series [2]: Equilibrium solubility of the compound in phosphate buffer at pH 7.4 after 1 hr. It is filed as physicochemical.
Series [3] concerns Influenza A virus. It is filed as functional, organism-based. As to conditions: A/Puerto Rico/8/1934(H1N1), MDCK, 48 h.
Series [4] can be described thus: Cytotoxicity against MDCK cells assessed as decrease in cell viability by MTT assay. It is filed as cell-based, Canis lupus familiaris. Conditions: dog. Background: Tetrazolium dyes change colour on reduction, which living cells bring about.
Series [5] deals with PA/PB1 (Influenza A virus (A/Puerto Rico/8/1934(H1N1)), UniProt P03431+P03433).
Series [6] can be described thus: Antiviral activity against Influenza A virus A/Solomon Island/3/06 (H1N1) assessed as reduction in plaque formation after 48 hrs by plaque reduction assay. It is filed as functional, Influenza A virus (A/Solomon Islands/3/2006(H1N1)).
The next series concerns Liver microsome. Briefly: Metabolic stability in human liver microsomes assessed as cytochrome-mediated metabolism after 30 mins by HPLC-MS/MS analysis. As to conditions: 0.5 h. It is filed as ADME. Background: Liver microsomes are vesicles of endoplasmic reticulum, rich in cytochrome P450 enzymes.
Series [7] deals with Influenza B virus. Briefly: Antiviral activity against Influenza B virus B/Lee/40 assessed as reduction in plaque formation after 48 hrs by plaque reduction assay. It is filed as functional, organism-based. Conditions: B/Lee/1940, 48 h.
Series [8] can be described thus: Cytotoxicity against human HEK293T cells assessed as decrease in cell viability by MTT assay. It is filed as cell-based, HEK-293T.
The nature of series [9]: Permeability of the compound assessed as membrane drug retention after 18 hrs by PAMPA assay. It is filed as physicochemical. The arrangement: concentration or dose not given beside the values.
Series [10] has as its system Influenza A virus. It is filed as functional, organism-based. Conditions: A/Puerto Rico/8/1934(H1N1), MDCK, 48 h. This is another data set of the same source.
For series [11], the system named is Influenza B virus. Briefly: Antiviral activity against Influenza B virus B/Malaysia/2506/04 assessed as reduction in plaque formation after 48 hrs by plaque reduction assay. As to conditions: B/Malaysia/2506/2004, 48 h. It is filed as functional.
A short description of series [12]: Permeability of the compound assessed as passive diffusion from donor compartment to acceptor compartment after 18 hrs by PAMPA assay. It is filed as physicochemical. As to conditions: read-out: Peff.
For series [13], the system named is Influenza B virus. Briefly: Antiviral activity against Influenza B virus B/Bangladesh/333/07 assessed as reduction in plaque formation after 48 hrs by plaque reduction assay. It is filed as functional, organism-based. Conditions: B/Bangladesh/333/07, 48 h.
Series [14] deals with Influenza A virus. It is filed as functional, organism-based. Conditions: A/Puerto Rico/8/1934(H1N1), HEK-293T, 50 uM.
Series [15] deals with Influenza A virus. It is filed as functional, organism-based. As to conditions: A/Puerto Rico/8/1934(H1N1), HEK-293T, 50 uM. This is another data set of the same source.
For series [16], the system named is Influenza A virus. It is filed as functional, organism-based. Conditions: A/Puerto Rico/8/1934(H1N1), HEK-293T, 50 uM. This is another data set of the same source.
Series [17] has as its system Influenza A virus. It is filed as functional, organism-based. As to conditions: A/Puerto Rico/8/1934(H1N1), HEK-293T, 50 uM. This is another data set of the same source.

As usually defined, the EC50 is the midpoint of the concentration-response curve. What is called thermodynamic solubility is the concentration in solution at equilibrium with solid. One may read the CC50 as the concentration that lowers cell viability or growth by half. For orientation: IC50 means the concentration needed to halve the response being measured. For `Cc1cc(-c2ccccc2)nc2nc(NC(=O)c3ccccc3)nn12`, the EC50 in series [1] is 24 µM; in the series on Influenza A virus [3], 25 µM; in [6] it was 27 µM; in the series on Influenza B virus [7] it was 25 µM; in the series on Influenza A virus [10], 25 µM; in the series on Influenza B virus [11] it was 36 µM. The 50% effective concentration (EC50) in the series on Influenza B virus [13] was determined as 34 µM. The same compound showed a solubility (thermodynamic) at 1 h in series [2] of 13 µg/mL (≈ 39.5 µM). The half-maximal cytotoxic concentration (CC50) was greater than 250 µM in series [4] and 196 µM in [8]. The compound also yielded an IC50 in series [5] of 26 µM. Besides, the Drug metabolism entry in the series with Liver microsome is “metabolite_notdetected”. Moreover, the Activity in [9] is 2%. Besides, the Papp at 18 h in [12] came to 5.49 ×10⁻⁶ cm/s.

For `Cc1cc(-c2ccccc2)n2nc(C(=O)Nc3sc4c(c3C(N)=O)CCCCC4)nc2n1`, the outcome in the series on Influenza A virus [14] was inactive. In addition, the EC50 in series [1] was determined as 7 µM; in the series on Influenza A virus [3], 21 µM; in series [6], 23 µM; in the series with Influenza B virus [7] it was 24 µM; in the series with Influenza A virus [10] it was 21 µM; in the series with Influenza B virus [11], 17 µM. The EC50 with Influenza B virus [13] came out at 11 µM. Moreover, the solubility (thermodynamic) at 1 h in [2] came to 13 µg/mL (≈ 29.1 µM). Moreover, the CC50 in [4] and in series [8] was greater than 250 µM in each case. In series [5], this compound displayed a half-inhibitory concentration (IC50) of 1.1 µM. The outcome in the series on Influenza A virus [15], in the series on Influenza A virus [16] and with Influenza A virus [17] was Active. Moreover, in the series on Liver microsome, the Drug metabolism entry is “metabolite_notdetected”. Also, the Activity in [9] was determined as 45%. For the same compound, in series [12], the Papp at 18 h is 0.61 ×10⁻⁶ cm/s.

Regarding `CCCOc1ccc(C(=O)Nc2nc3n(n2)C(c2ccccc2)C=C(C)N3)cc1` (stereo unspecified), the half-maximal effective concentration (EC50) was determined as 37 µM in series [1]; 47 µM in the series with Influenza A virus [3]; 27 µM in series [6]; 51 µM in the series on Influenza B virus [7]; 47 µM with Influenza A virus [10]; 32 µM in the series on Influenza B virus [11]. The EC50 in the series with Influenza B virus [13] was found to be 27 µM. The same compound showed a solubility (thermodynamic) at 1 h in series [2] of 13 µg/mL (≈ 33.4 µM). The values for the CC50 in series [4] and in series [8] were greater than 230 µM and greater than 250 µM, respectively. In addition, in series [5], the IC50 turned out to be 40 µM. In addition, in the series on Liver microsome, the Drug metabolism result is “metabolite_notdetected”. The Activity in series [9] amounted to 41%. Further, the Papp at 18 h in [12] turned out to be 2.93 ×10⁻⁶ cm/s.
